{"source": "patent US20090088449A1", "about": "“4-ACYLAMINOPYRIDINE DERIVATIVE MEDIATED NEUROGENESIS” (MITSUBISHI TANABE PHARMA CORPORATION, priority 2006, published 2009)", "key": {"[1]": {"system": "Human neural stem cells (hNSCs)", "assay": "Neuronal differentiation of human neural stem cells (TUJ-1 staining)", "type": "cell-based", "description": "Human neural stem cells (hNSCs) were isolated and grown in monolayer culture, plated, treated with varying concentrations of MKC-231 (test compound), and stained with TUJ-1 antibody, as described in U.S. Provisional Application No. 60/697,905 (incorporated by reference). Mitogen-free test media with a positive control for neuronal differentiation was used along with basal media without growth factors as a negative control.\nThe dose response curve of the neuronal positive control is included as a reference. The data is presented as a percent of neuronal positive control."}, "Human Neural Stem Cells [2]": {"system": "Human Neural Stem Cells", "assay": "MKC-231 in combination with an AMPA antagonist (NBQX), neuronal differentiation of human neural stem cells", "type": "cell-based", "experimental": "FIG. 7 is a dose-response curve showing inhibition of the effects of the agent MKC-231 on neuronal differentiation by combination with an AMPA antagonist (NBQX). Data is presented as the percentage of the neuronal positive control, with basal media values subtracted.\nExperiments with various concentrations of MKC-231 alone or with 1.0 μM of an AMPA antagonist (NBQX) were carried out generally as described in Example 1 for neuronal differentiation. […] The data also indicate that MKC-231 exerts some of its neurogenic effect as through the AMPA receptor activation."}, "male F344 rats [3]": {"system": "male F344 rats", "assay": "Hippocampal neurogenesis in rat (BrdU)", "type": "in vivo", "experimental": "BCI-540 was administered to male F344 rats by oral gavage once daily for 28 days (1.0 and 4.0 mg/kg/day, p.o.). BrdU was administered once daily for 5 days (days 9 to 14, 100 mg/kg/day, i.p.). Animals were sacrificed on day 28. Brains were removed and processed for evaluation of neurogenesis.\nThe y-axis represents percent change compared to vehicle control. The x-axis indicates treatment with vehicle set to 100% (black bar) and BCI-540 dosed at 1.0 and 4.0 mg/kg/day (black hatched bars). The black line indicates 100% of vehicle control."}, "male F344 rats [4]": {"system": "male F344 rats", "assay": "Novelty suppressed feeding in rat", "type": "in vivo", "settings": "for change in latency to eat the food pellet: 21-day administration", "experimental": "BCI-540 was administered to male F344 rats by oral gavage once daily for 21 days (1.0 mg/kg/day, p.o.). Fluoxetine was administered by oral gavage once daily for 21 days (10 mg/kg/day, p.o.). BrdU was administered once daily for 5 days (days 9 to 14, 100 mg/kg/day, i.p.). Animals were tested after 21 days of drug administration.\nShown in FIG. 9 is the change in latency to eat compared to vehicle control (±SEM). The y-axis represents percent change compared to vehicle control. The x-axis indicates treatment. Vehicle is set to 100%. The black line indicates 100% of vehicle control."}, "hNSCs": {"system": "hNSCs", "assay": "Astrocyte differentiation of hNSCs (GFAP staining)", "type": "cell-based, human", "experimental": "Experiments were carried out as described in Example 1, except the positive control for astrocyte differentiation contained mitogen-free test media with positive control for astrocyte differentiation, and cells were stained with GFAP antibody."}, "male Sprague Dawley rats": {"system": "male Sprague Dawley rats", "assay": "Elevated plus maze (animal model of anxiety)", "type": "in vivo, rat", "experimental": "BCI-540 was administered to male Sprague Dawley rats by oral gavage once daily for 21 days (1.0 mg/kg/day, p.o.). As a positive control, the anxiolytic diazepam (1.5 mg/kg, i.p.) was administered one time, 30 minutes prior to testing.\nThe y-axis represents percent time on the open arm. The x-axis indicates treatment with vehicle (black bar), positive control diazepam (gray bar), and BCI-540 treated animals (black hatched bars) (n=15/group)."}, "Human Neural Stem Cells [5]": {"system": "Human Neural Stem Cells", "assay": "MKC-231 in combination with an AMPA agonist, neuronal differentiation of human neural stem cells", "type": "cell-based", "settings": "for EC50: Homo sapiens, Neural stem cell", "experimental": "FIG. 4 is a dose-response curve showing enhancement of the effects of the agent MKC-231 on neuronal differentiation by combination with an AMPA agonist (AMPA). Data is presented as the percentage of the neuronal positive control, with basal media values subtracted.\nFIG. 6 is the average does response curve of multiple experiments (N=6) showing enhancement of the effects of the agent MKC-231 on neuronal differentiation by combination with affixed concentration of AMPA agonist (0.32 μM AMPA). […] Data is presented as the percentage of the neuronal positive control, with basal media values subtracted.\nExperiments with various concentrations of MKC-231 alone or with 0.316 μM of an AMPA agonist (AMPA) were carried out generally as described in Example 1 for neuronal differentiation. […] The data also indicate that MKC-231 apparently exerts some of its neurogenic effect as an AMPA potentiator or sensitizer. Also see FIG. 6 relating to BCI-540 in combination with AMPA and neuronal differentiation."}, "[6]": {"biological_target": "acetylcholinesterase (AChE) (Homo sapiens, UniProt P22303)", "sequence (P22303 32-614, species assumed)": "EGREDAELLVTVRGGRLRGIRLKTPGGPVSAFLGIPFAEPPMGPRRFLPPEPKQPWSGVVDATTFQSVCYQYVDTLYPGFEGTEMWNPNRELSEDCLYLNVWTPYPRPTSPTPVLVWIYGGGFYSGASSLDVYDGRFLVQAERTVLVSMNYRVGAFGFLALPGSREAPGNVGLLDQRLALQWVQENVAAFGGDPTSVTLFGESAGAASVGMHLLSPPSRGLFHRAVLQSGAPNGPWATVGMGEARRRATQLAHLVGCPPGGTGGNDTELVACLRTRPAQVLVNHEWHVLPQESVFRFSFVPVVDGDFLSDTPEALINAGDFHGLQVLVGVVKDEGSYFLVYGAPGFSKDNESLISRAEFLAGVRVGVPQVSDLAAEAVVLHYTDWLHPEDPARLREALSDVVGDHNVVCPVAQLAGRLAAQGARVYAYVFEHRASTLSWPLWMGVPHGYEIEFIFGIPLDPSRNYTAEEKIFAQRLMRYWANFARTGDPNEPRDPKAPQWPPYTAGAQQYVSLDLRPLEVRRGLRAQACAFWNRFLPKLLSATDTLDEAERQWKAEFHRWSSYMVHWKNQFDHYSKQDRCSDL", "settings": "cited from earlier work"}, "Human Neural Stem Cells [7]": {"system": "Human Neural Stem Cells", "assay": "Toxic/trophic effect on human neural stem cells (Hoechst 33342 cell count)", "type": "cell-based", "settings": "concentrations up to 31.6 μM", "experimental": "Experiments were carried out as described in Example 1, except that the cells were stained with a nuclear dye (Hoechst 33342).\nThe data therein is shown as a percentage of the basal media cell count. Concentrations that are toxic fall below 80% of the basal cell count. Trophic compounds show dose dependent increases in cell count."}, "[8]": {"settings": "cited from earlier work; for stability at room temperature and during storage: room temperature (about 25° C.), over time"}, "[9]": {"settings": "1.0 mg/kg daily p.o. for 21 days"}}}
{"compound": "Cc1oc2nc3c(c(NC(=O)CN4CCCC4=O)c2c1C)CCCC3", "note": "[MKC-231, 2-(2-oxypyrrolidin-1-yl)-N-(2,3-dimethyl-5,6,7,8-tetrahydrofuro(2,3-b)quinolin-4-yl)acetoamide]", "values": [{"measurement": "neuronal differentiation above background levels", "setting": "[1]; FIG. 1", "value": "promoted neuronal differentiation above background levels"}, {"measurement": "EC50", "setting": "[1]; Homo sapiens, Neural stem cell, MKC-231 alone, percent of neuronal positive control, basal media subtracted (FIG. 1)", "value": 5.1, "unit": "µM"}, {"measurement": "EC50", "setting": "Human Neural Stem Cells [2]; Homo sapiens, Neural stem cell, with 1.0 μM NBQX (FIG. 7)", "value": "> 31.6", "unit": "µM"}, {"measurement": "increase in new neurons within the granule cell layer of the dentate gyrus compared to vehicle control", "setting": "male F344 rats [3]; 1.0 mg/kg daily p.o. for 28 days", "value": 22, "unit": "%"}, {"measurement": "increase in new neurons within the granule cell layer of the dentate gyrus compared to vehicle control", "setting": "male F344 rats [3]; 4.0 mg/kg daily p.o. for 28 days", "value": 20, "unit": "%"}, {"measurement": "change in new neurons within the granule cell layer of the dentate gyrus", "setting": "male F344 rats [3]; 1.0 and 4.0 mg/kg daily for 28 days", "value": "statistically significant increase"}, {"measurement": "decrease in latency to eat compared to vehicle control", "setting": "male F344 rats [4]; [9]", "value": 35, "unit": "%"}, {"measurement": "change in latency to eat the food pellet", "setting": "male F344 rats [4]", "value": "statistically significant decrease"}, {"measurement": "astrocyte differentiation above basal media values", "setting": "hNSCs; FIG. 2", "value": "no significant increase"}, {"measurement": "EC50 astrocyte differentiation", "setting": "hNSCs; percent of astrocyte positive control, basal media subtracted (FIG. 2)", "value": "undeterminable"}, {"measurement": "increase in the time spent on the open arms", "setting": "male Sprague Dawley rats; [9]", "value": 20, "unit": "%"}, {"measurement": "time spent on the open arms", "setting": "male Sprague Dawley rats; chronic administration, 1.0 mg/kg/day p.o., 21 days", "value": "significant increase"}, {"measurement": "EC50", "setting": "Human Neural Stem Cells [5]; read-out: EC50 neuronal differentiation, MKC-231 in the presence of a fixed concentration AMPA", "value": 0.22, "unit": "µM"}, {"measurement": "EC50", "setting": "Human Neural Stem Cells [5]; average of multiple experiments (N=6) (FIG. 6), read-out: EC50 neuronal differentiation, MKC-231 alone", "value": 3.7, "unit": "µM"}, {"measurement": "EC50", "setting": "Human Neural Stem Cells [5]; with 0.316 μM AMPA agonist (AMPA) (FIG. 4), read-out: EC50 neuronal differentiation, MKC-231 in combination with AMPA", "value": 0.99, "unit": "µM"}, {"measurement": "AChE inhibitory activity", "setting": "[6]", "value": "does not have such inhibitory activity"}, {"measurement": "toxicity (cell count below 80% of basal cell count)", "setting": "Human Neural Stem Cells [7]", "value": "no toxicity"}]}
{"compound": "Cc1oc2nc3c(c(NC(=O)CC4CNC(=O)C4)c2c1C)CCCC3", "note": "(stereo not drawn) [form B crystal, N-(2,3-dimethyl-5,6,7,8-tetrahydrofuro[2,3-b]quinolin-4-yl)-2-(2-oxopyrrolidin-4-yl)acetamide]", "values": [{"measurement": "stability at room temperature and during storage", "setting": "[8]", "value": "lower stability"}, {"measurement": "stability in storage", "setting": "[8]", "value": "lower stability in storage than the form A crystal"}]}
{"compound": "Cc1oc2nc3c(c(NC(=O)CC4CNC(=O)C4)c2c1C)CCCC3", "note": "(stereo not drawn) [form A crystal, N-(2,3-dimethyl-5,6,7,8-tetrahydrofuro[2,3-b]quinolin-4-yl)-2-(2-oxopyrrolidin-4-yl)acetamide]", "values": [{"measurement": "stability at room temperature and during storage", "setting": "[8]", "value": "better stability"}, {"measurement": "stability in storage", "setting": "[8]", "value": "greater stability in storage than the form B crystal"}]}
{"compound": "CN1C(=O)CN=C(c2ccccc2)c2cc(Cl)ccc21", "note": "[diazepam, reference compound]", "values": [{"measurement": "increase in time spent on the open arms", "setting": "male Sprague Dawley rats; single administration, 1.5 mg/kg i.p., 30 minutes prior to testing", "value": 12, "unit": "%"}]}
{"compound": "CNCCC(Oc1ccc(C(F)(F)F)cc1)c1ccccc1", "note": "(stereo not drawn) [fluoxetine, reference compound]", "values": [{"measurement": "decrease in latency to eat compared to vehicle control", "setting": "male F344 rats [4]; 10.0 mg/kg daily p.o. for 21 days", "value": 38, "unit": "%"}, {"measurement": "change in latency to eat the food pellet", "setting": "male F344 rats [4]", "value": "statistically significant decrease"}]}
{"compound": "NS(=O)(=O)c1cccc2c1c([N+](=O)[O-])cc1nc(O)c(O)nc12", "note": "[NBQX, reference compound]", "values": [{"measurement": "effect of AMPA antagonist on MKC-231 stimulated neuronal differentiation", "setting": "Human Neural Stem Cells [2]; 1.0 μM NBQX", "value": "inhibits the stimulation of neuronal differentiation"}]}
{"compound": "Cc1o[nH]c(=O)c1CC(N)C(=O)O", "note": "(stereo not drawn) [AMPA, reference compound]", "values": [{"measurement": "effect of AMPA agonist on MKC-231 stimulated neuronal differentiation", "setting": "Human Neural Stem Cells [5]; 0.316 μM AMPA", "value": "enhances the stimulation of neuronal differentiation"}, {"measurement": "neuronal differentiation by AMPA alone", "setting": "Human Neural Stem Cells [5]; 0.32 μM AMPA alone (FIG. 6)", "value": "does not promote neuronal differentiation alone"}]}
